Measurements from patent US20230381271A1, “PROTOCOL TO MINIMIZE CALCINEURIN INHIBITOR NEPHROTOXICITY” (Aurinia Pharmaceuticals Inc., priority 0001, published 2023).
“Also recorded” adds a separate entry of the source.

Columns and labels:
[1] = tested on: LN; assay: 48 week study of LN treatment: voclosporin plus MMF and oral corticosteroids, with pharmacodynamic (eGFR-guided) dosing; format: in vivo, human; conditions: for Patients with CR at 24 weeks / Patients with CR at 48 weeks / Patients with PR at 24 weeks / Patients with PR at 48 weeks: patients with no dose reduction
Description: The study was conducted over a period of 48 weeks and safety was evaluated at 24 weeks.
Subjects were assessed after 24 weeks and 48 weeks as well as a subsequent evaluation at 50 weeks.
PR is a composite end-point that includes safety and efficacy: UPCR reduction of 50% from baseline and no use of rescue medication.
To determine the efficacy of the pharmacodynamics protocol wherein dosage is reduced or stopped according to the presence or absence of indicators of the decrease in eGFR experienced as a side effect, these three groups of patients were assessed after 24 weeks and 48 weeks of treatment in consideration of whether treatment was altered according to the invention protocol.
PR is defined as UPCR reduction of 50% from baseline and no use of rescue medication.

[2] = tested on: LN; assay: Low dosage protocol: clinical studies similar to Example 1, dosage reduced to 15.8 or 7.9 mg BID; format: in vivo, human
[3] = tested on: subjects with active lupus nephritis; assay: Double-blind randomized controlled trial in active lupus nephritis: complete renal response; format: in vivo, human; conditions: at one year
[4] = tested on: subjects with lupus nephritis; assay: 24-hour urinary electrolyte excretion concentrations in the lupus nephritis trial; format: in vivo, human; conditions: for Potassium urinary excretion concentration, change from baseline, mean ± SEM / Sodium urinary excretion concentration, change from baseline, mean ± SEM: baseline to one year, 24-hour urine
Source text: Twenty-four-hour urine samples from 60 patients in each treatment arm were selected for urinary analysis of electrolytes. […] The mean change from baseline to one year in magnesium, potassium and sodium were presented as 24-hour urinary excretion concentrations.

[5] = tested on: subjects with biopsy-proven active lupus nephritis; assay: Pooled Phase 2 and Phase 3 lupus nephritis studies: complete renal response rate; format: in vivo, human; conditions: pooled data
Source text: (§1) All patients were concurrently administered mycophenolate mofetil (MMF) (target 1 g BID) and rapidly-tapered, low-dose steroids.

[6] = tested on: subjects with LN; assay: Pooled Phase 2 and Phase 3 lupus nephritis studies: fasting lipid profile; format: in vivo, human
Description: as §1
Fasting total cholesterol, low-density lipoprotein cholesterol (LDL), high-density lipoprotein cholesterol (HDL), and triglycerides were measured at baseline and at a one year follow-up in a central, CLIA-certified laboratory.

[7] = tested on: subjects with lupus nephritis; assay: Long-term continuation study: eGFR, UPCR, oral steroid dose; format: in vivo, human; conditions: for Corrected eGFR, mean / UPCR, mean: N = 116
[8] = tested on: subjects with lupus nephritis; assay: Long-term continuation study: adverse events; format: in vivo, human
[9] = tested on: patients with lupus nephritis; conditions: patients treated with voclosporin; cited from earlier work
[10] = tested on: mouse kidney; assay: MALDI-MSI localization in mouse kidney after IV administration; conditions: tail vein injection of parent drug, compared between voclosporin and cyclosporine A species
Description: Kidneys were cryosectioned and covered with a matrix for MALDI-MSI analysis. The sample was measured in a raster process in the mass spectrometer, resulting in a spatially resolved mass spectra. The detected molecules were visualized as a color intensity map (m/z 0%-100%). Histological staining of the sample was then performed. Histological staining and the MALDI-MSI measurements of the same sample were co-registered.

[11] = High Dose 39.5 mg BID, 24 weeks, n=88
[12] = High Dose 39.5 mg BID, 48 weeks, n=88
[13] = High Dose 39.5 mg BID, patients with dose reductions (pharmacodynamically dosed)
[14] = Low Dose 23.7 mg BID, 48 weeks, n=89
[15] = Low Dose 23.7 mg BID, patients with dose reductions (pharmacodynamically dosed)
[16] = low dosage 23.7 mg BID + MMF + corticosteroids, whole group
[17] = any subgroup, either treatment arm, one year
[18] = change from baseline to one year

C=C/C=C/C[C@@H](C)[C@@H](O)[C@H]1C(=O)N[C@@H](CC)C(=O)N(C)CC(=O)N(C)[C@@H](CC(C)C)C(=O)N[C@@H](C(C)C)C(=O)N(C)[C@@H](CC(C)C)C(=O)N[C@@H](C)C(=O)N[C@H](C)C(=O)N(C)[C@@H](CC(C)C)C(=O)N(C)[C@@H](CC(C)C)C(=O)N(C)[C@@H](C(C)C)C(=O)N1C [voclosporin]
Patients with Dose Reduction [1, 11]: 47 (53.4) n(%)
Patients with no Dose Reduction [1, 11]: 41 (46.6) n(%)
Patients with Dose Reduction [1, 12]: 53 (60.2) n(%)
Patients with no Dose Reduction [1, 12]: 35 (39.8) n(%)
Patients with CR at 24 weeks, percent [1, 13]: (27.7) %
Patients with CR at 48 weeks, percent [1, 13]: (45.3) %
Patients with PR at 24 weeks, number [1, 13]: 34 n
Patients with PR at 24 weeks, percent [1, 13]: (72.3) %
Patients with PR at 48 weeks, percent [1, 13]: (77.4) %
Patients with CR at 24 weeks ([1]; High Dose 39.5 mg BID): 11 (26.8) n(%)
Patients with CR at 48 weeks ([1]; High Dose 39.5 mg BID): 11 (31.4) n(%)
Patients with PR at 24 weeks ([1]; High Dose 39.5 mg BID): 24 (58.5) n(%)
Patients with PR at 48 weeks ([1]; High Dose 39.5 mg BID): 22 (62.9) n(%)
Patients with no Dose Reduction ([1]; Low Dose 23.7 mg BID, 24 weeks, n=89): 50 (56.2) n(%)
Patients with Dose Reduction [1, 14]: 46 (51.7) n(%)
Patients with no Dose Reduction [1, 14]: 43 (48.3) n(%)
Patients with CR at 24 weeks, percent [1, 15]: (35.9) %
Patients with CR at 48 weeks, percent [1, 15]: (52.2) %
Patients with PR at 24 weeks, percent [1, 15]: (71.8) %
Patients with PR at 48 weeks, number [1, 15]: 35 n
Patients with PR at 48 weeks, percent [1, 15]: (76.1) %
Patients with CR at 24 weeks ([1]; Low Dose 23.7 mg BID): 15 (30.0) n(%)
Patients with CR at 48 weeks ([1]; Low Dose 23.7 mg BID): 20 (46.5) n(%)
Patients with PR at 24 weeks ([1]; Low Dose 23.7 mg BID): 34 (68.0) n(%)
Patients with PR at 48 weeks ([1]; Low Dose 23.7 mg BID): 26 (60.5) n(%)
patients showing CR at 24 weeks [1, 16]: 32.6%
patients showing PR at 24 weeks [1, 16]: 70%
complete or partial remission at reduced dosage ([2]; dosage lowered to 7.9 mg BID quite early in the treatment): Substantial numbers of subjects showed complete or partial remission
remission at reduced dosage ([2]; dosage reduced almost immediately to 15.8 mg BID): a substantial portion of subjects showed substantial remission
complete renal response rate ([3]; 23.7 mg twice daily + MMF + low-dose steroids): 40.8%
complete renal response, OR vs MMF and low-dose steroids only ([3]; p<0.0001): 2.65
Potassium urinary excretion concentration, change from baseline, mean ± SEM ([4]; Non-responders, n = 32): -2.48 ± 4.806 mmol/L
Sodium urinary excretion concentration, change from baseline, mean ± SEM ([4]; Non-responders, n = 32): -23.0 ± 12.69 mmol/L
Potassium urinary excretion concentration, change from baseline, mean ± SEM ([4]; Responders, n = 28): -6.38 ± 24.0 mmol/L
Sodium urinary excretion concentration, change from baseline, mean ± SEM ([4]; Responders, n = 28): -27.6 ± 109 mmol/L
Decrease from baseline in urinary sodium excretion concentration ([4]; all subgroups except responders in the control arm, one year): < 30.5 mmol/L
Mean changes from baseline in urinary magnesium excretion concentration (magnitude) [4, 17]: < 13.4 mg/dL
Mean changes from baseline in urinary potassium excretion concentration (magnitude) [4, 17]: < 6.4 mmol/L
changes from baseline in urinary electrolyte excretion concentrations of magnesium, potassium, and sodium ([4]; at the studied dose, regardless of response to treatment): not clinically meaningful
Potassium urinary excretion concentration, change from baseline, mean ± SEM ([4]; eGFR decrease cohort, n = 28): -4.58 ± 4.648 mmol/L
Sodium urinary excretion concentration, change from baseline, mean ± SEM ([4]; eGFR decrease cohort, n = 28): -30.5 ± 11.92 mmol/L
complete renal response rate (CRR) ([5]; one year of treatment, added to MMF and low-dose steroids): 43.7%
complete renal response, OR vs control ([5]; one year, P<0.0001): 2.76
HDL cholesterol, Change from Baseline to One Year, mean ([6]; 23.7 mg BID arm): -5.9 mg/dL
LDL cholesterol, Change from Baseline to One Year, mean ([6]; 23.7 mg BID arm): -57.4 mg/dL
Total cholesterol, Change from Baseline to One Year, mean ([6]; 23.7 mg BID arm): -82.6 mg/dL
Triglycerides, Change from Baseline to One Year, mean ([6]; 23.7 mg BID arm): -74.1 mg/dL
LDL cholesterol, observed, mean ([6]; Baseline, 23.7 mg BID arm, normal range 50 to 130): 174.0 mg/dL
Triglycerides, observed, mean ([6]; Baseline, 23.7 mg BID arm, normal range 50 to 150): 239.6 mg/dL
Total cholesterol, observed, mean ([6]; Baseline, 23.7 mg BID arm, normal range 100 to 200): 288.8 mg/dL
LDL cholesterol, observed, mean ([6]; One Year, 23.7 mg BID arm): 114.3 mg/dL
Total cholesterol, observed, mean ([6]; One Year, 23.7 mg BID arm): 196.6 mg/dL
Triglycerides, observed, mean ([6]; One Year, 23.7 mg BID arm): 148.4 mg/dL
percentage of subjects with normal triglycerides ([6]; at baseline): 32.3%
percentage of subjects with normal triglycerides ([6]; at one year): 56.1%
increase in percentage of patients with total cholesterol in the normal range ([6]; baseline to one year): about 42%
increase in percentage with normal LDL ([6]; baseline to one year): about 42%
HDL cholesterol, LS Mean Difference Voclosporin vs Control [6, 18]: -0.6 mg/dL
LDL cholesterol, LS Mean Difference Voclosporin vs Control [6, 18]: -10.3 mg/dL
Total cholesterol, LS Mean Difference Voclosporin vs Control [6, 18]: -15.1 mg/dL
Triglycerides, LS Mean Difference Voclosporin vs Control [6, 18]: -15.9 mg/dL
Mean HDL levels over the study ([6]; within the normal range at baseline, both arms): remained stable throughout the study
Corrected eGFR, mean ([7]; Month 12, 23.7 mg twice daily + MMF + low-dose steroids): 80.7 mL/min/1.73 m^2
UPCR, mean ([7]; Month 12): 0.86 mg/mg
mean UPCR versus control ([7]; all time points during the three years): lower
increase from baseline eGFR, compared to the active control group ([7]; at 36 months): +2.7 mL/min
mean estimated glomerular filtration rate (eGFR) over time ([7]; over 36 months, 116 subjects): stable over 36 months
Corrected eGFR, mean ([7]; pre-treatment Baseline): 79.0 mL/min/1.73 m^2
UPCR, mean ([7]; pre-treatment Baseline): 3.941 mg/mg
withdrawals ([8]; continuation study): 12.9%
deaths in the treated group ([8]; continuation study, four deaths in the active control group): no deaths
Adverse Event Leading to Voclosporin/Placebo Discontinuation ([8]; n = 116): 10.3%
Disease-Related Adverse Event ([8]; n = 116): 51.7%
Treatment-Related Adverse Event ([8]; n = 116): 27.6%
Treatment-Related Serious Adverse Event ([8]; n = 116): 0.9%
Any Adverse Event ([8]; n = 116, 23.7 mg twice daily + MMF + low-dose steroids): 88.8%
tolerability ([8]; up to three years of treatment): well tolerated with no unexpected safety signals observed
Mean serum electrolyte concentrations [9]: within normal ranges
distribution, accumulation and intensity in the kidney (MALDI-MSI) [10]: relatively weak throughout the kidney, particularly in the cortex; also recorded: do not accumulate at high concentrations in the kidney
